From patent US5334600A, “Isoquinolyl substituted hydroxylamine derivatives” (Ciba-Geigy Corporation, priority 1993, dated 1994)
pIC50: −log10 of the molar value.

Experiments:
[1] = test system: 5-lipoxygenase; experiment: Ex vivo inhibition of A-23187-stimulated LTB4 formation in whole blood after oral administration; details: dose of about 1.0 mg/kg p.o. to the dog
Description: Furthermore, the inhibition of 5-lipoxygenase is determined after oral or i.v. administration to rats or dogs by measuring ex vivo in whole blood the decrease of A-23187-stimulated LTB4 formation as compared to non-treated control animals.

[2] = biological target: T1, 5-lipoxygenase (Cavia porcellus, UniProt A0A286X958); experiment: Inhibition of 5-HETE and LTB4 synthesis in A-23187-stimulated guinea pig polymorphonuclear leukocytes; format: cell-based; details: read-out: IC50, inhibition of the formation of 5-HETE and leukotriene B4 (LTB4)
T1 construct: A-23187-stimulated guinea pig polymorphonuclear leukocytes; endogenous in cells; host or cells: guinea pig polymorphonuclear leukocytes
T1 sequence (A0A286X958 1-674): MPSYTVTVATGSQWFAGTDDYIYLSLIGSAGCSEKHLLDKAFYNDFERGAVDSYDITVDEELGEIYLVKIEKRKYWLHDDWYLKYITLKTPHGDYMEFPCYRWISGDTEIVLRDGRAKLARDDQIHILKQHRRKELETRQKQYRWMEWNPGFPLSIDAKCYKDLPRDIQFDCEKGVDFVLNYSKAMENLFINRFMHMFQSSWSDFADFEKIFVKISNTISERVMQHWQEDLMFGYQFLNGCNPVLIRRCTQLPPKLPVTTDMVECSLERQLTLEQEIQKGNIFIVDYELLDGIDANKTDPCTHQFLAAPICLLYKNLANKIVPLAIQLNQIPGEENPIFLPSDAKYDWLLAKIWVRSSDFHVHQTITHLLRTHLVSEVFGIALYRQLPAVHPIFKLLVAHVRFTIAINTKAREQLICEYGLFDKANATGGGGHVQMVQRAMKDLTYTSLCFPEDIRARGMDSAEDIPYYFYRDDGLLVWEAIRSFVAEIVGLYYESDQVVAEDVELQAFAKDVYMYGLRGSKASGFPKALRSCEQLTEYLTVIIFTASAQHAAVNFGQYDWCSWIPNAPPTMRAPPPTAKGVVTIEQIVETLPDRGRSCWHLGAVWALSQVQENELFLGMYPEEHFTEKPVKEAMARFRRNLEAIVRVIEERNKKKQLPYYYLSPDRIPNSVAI
Description: 5-Lipoxygenase inhibition is determined e.g. by measuring the percent inhibition of the synthesis of 5-HETE [(5S)-5-hydroxy-6,8,11,14-eicosa-tetraenoic acid] and leukotriene B4 (LTB4, 5,12-dihydroxy-6,8, 10, 14-eicosatetraenoic acid) in A-23187-stimulated guinea pig polymorphonuclear leukocytes, essentially according to radiometric thin-layer chromatographic assays described by Walker and Dawson (J. Pharm. Pharmacol. 31: 778, 1979) and Jakschik and Lee (Nature 287: 51, 1980) to measure the formation of 5-HETE and LTB4 -like products from ^14 C-arachidonic acid. IC50 values are determined graphically as the concentration of test compound at which the synthesis of 5-HETE and LTB4 -like products is reduced to 50 % of their respective control values.

pIC50 [2]: ~6.30
Structure (SMILES): NC(=O)N(O)CCOc1ccc2c(c1)CCN(CCCc1ccccc1)C2=O [1(f), 2-(3-phenylpropyl)-6-[2-(N-aminocarbonyl-N-hydroxyamino)ethoxy]-1-oxo-1,2,3,4-tetrahydroisoquinoline]
inhibition of LTB4 formation as determined ex vivo [1]: significant inhibition
